Measurements as given in US9988420B2, “Cytotoxic peptides and conjugates thereof” (priority 2013, dated 2018).
Starred links: 1 amine or outer side, 2 acyl side, 3 side chain; linkers in the order of their positions; H or OH if unused. Non-standard residues stand in square brackets, D forms with d. Residues, ends and D or L forms follow the SMILES beside them. *: point of attachment. Dolaproine = CO[C@@H]([C@@H]1CCCN1)[C@@H](C)C(=O)O; X1 = O=C([C@@H]1[C@H]2CC[C@H](C2)N1[*:1])[*:2]; Dil = CC[C@H](C)[C@H](NC)[C@@H](CC(=O)O)OC; X2 = CN1[C@@H]2CC[C@@H](C2)[C@H]1C(=O)*; Phe(ol) = N[C@H](CO)Cc1ccccc1

Key:
Experiment in all cases: In vitro cell killing assay of payloads (cell proliferation, Cell-Titer-Glo)
Format in all cases: cell-based
JimT1 cells = conditions: Homo sapiens, JIMT-1, 120 h; JimT1 cells; Cell-Titer-Glo after five days; Table 2b; read-out: In vitro cell killing (IC50 (nM)) JimT1
H526 cells = conditions: Homo sapiens, 120 h; NCI-H526 cells; Cell-Titer-Glo after five days; Table 2b; read-out: In vitro cell killing (IC50 (nM)) NCI-H526
A375 cells = conditions: Homo sapiens, A-375, 120 h, Cell-Titer-Glo after five days
Protocol: (§1) For evaluation of the cell killing potency of the cytotoxic peptides of Formula (I) in vitro, cell proliferation assays were performed in parallel with 8 cell lines: MDA-MB231 clone 16, clone 40, JimT1, HCC1954, H526, KU812, CMK11-5 cells and Jurkat cells. In addition, in vitro, cell proliferation assays were performed using 3 other cell lines: A375, SKBR3 and NCI-N87. All the cell lines are described in more detail in Example 106 and were also used to assess the in vitro potency of immunoconjugates of the invention. The cell proliferation assays were conducted with Cell-Titer-Glo™ (Promega) five days after cells were incubated with various concentrations of ADCs (Riss et al., (2004) Assay Drug Dev Technol. 2:51-62).

NCI-N87 cells = conditions: Homo sapiens, 120 h, Cell-Titer-Glo after five days
Protocol: as §1

SKBR3 cells = conditions: Homo sapiens, SK-BR-3, 120 h, Cell-Titer-Glo after five days
Protocol: as §1

HCC1954 cells = conditions: Homo sapiens, 120 h; HCC1954 cells; Cell-Titer-Glo after five days; Table 2b; read-out: In vitro cell killing (IC50 (nM)) HCC1954

| Structure (SMILES) | IC50 (JimT1 cells) | IC50 (H526 cells) | IC50 (A375 cells) | IC50 (NCI-N87 cells) | IC50 (SKBR3 cells) | IC50 (HCC1954 cells) |
| --- | --- | --- | --- | --- | --- | --- |
| CC[C@H](C)[C@@H]([C@@H](CC(=O)N1CCC[C@H]1[C@H](OC)[C@@H](C)C(=O)N[C@H](CO)Cc1ccccc1)OC)N(C)C(=O)[C@@H](NC(=O)[C@H]1N[C@@H]2CC[C@H]1C2)C(C)C [Compound 50, (1R,3S,4S)-N-((S)-1-(((3R,4S,5S)-1-((S)-2-((1R,2R)-3-(((S)-1-Hydroxy-3-phenylpropan-2-yl)amino)-1-methoxy-2-methyl-3-oxopropyl)pyrrolidin-1-yl)-3-methoxy-5-methyl-1-oxoheptan-4-yl)(methyl)amino)-3-methyl-1-oxobutan-2-yl)-2-azabicyclo[2.2.1]heptane-3-carboxamide] (H-[X1]V[Dil][Dolaproine][Phe(ol)]) | 57.6 nM | 52.4 nM | 5.16 nM | 10.2 nM | 5.66 nM |  |
| CC[C@H](C)[C@@H]([C@@H](CC(=O)N1CCC[C@H]1[C@H](OC)[C@@H](C)C(=O)N[C@H](CO)Cc1ccccc1)OC)N(C)C(=O)[C@@H](NC(=O)[C@@H]1[C@H]2CC[C@H](C2)N1C)C(C)C [Compound 51, (1R,3S,4S)-N-((S)-1-(((3R,4S,5S)-1-((S)-2-((1R,2R)-3-(((S)-1-Hydroxy-3-phenylpropan-2-yl)amino)-1-methoxy-2-methyl-3-oxopropyl)pyrrolidin-1-yl)-3-methoxy-5-methyl-1-oxoheptan-4-yl)(methyl)amino)-3-methyl-1-oxobutan-2-yl)-2-methyl-2-azabicyclo[2.2.1]heptane-3-carboxamide] (X2-V[Dil][Dolaproine][Phe(ol)]) | 0.081 nM | 0.184 nM | 0.154 nM | 0.053 nM | 0.035 nM | 0.028 nM |
| CC[C@H](C)[C@@H]([C@@H](CC(=O)N1CCC[C@H]1[C@H](OC)[C@@H](C)C(=O)N[C@H](CO)Cc1cccc(N)c1)OC)N(C)C(=O)[C@@H](NC(=O)[C@@H]1[C@H]2CC[C@H](C2)N1C)C(C)C [Compound 52, (1R,3S,4S)-N-((S)-1-(((3R,4S,5S)-1-((S)-2-((1R,2R)-3-(((S)-1-(3-Aminophenyl)-3-hydroxypropan-2-yl)amino)-1-methoxy-2-methyl-3-oxopropyl)pyrrolidin-1-yl)-3-methoxy-5-methyl-1-oxoheptan-4-yl)(methyl)amino)-3-methyl-1-oxobutan-2-yl)-2-methyl-2-azabicyclo[2.2.1]heptane-3-carboxamide] |  |  | 0.923 nM | 0.068 nM | 0.046 nM | 0.019 nM |
| CC[C@H](C)[C@@H]([C@@H](CC(=O)N1CCC[C@H]1[C@H](OC)[C@@H](C)C(=O)N[C@@H](Cc1ccccc1)CS(N)(=O)=O)OC)N(C)C(=O)[C@@H](NC(=O)[C@@H]1[C@H]2CC[C@H](C2)N1C)C(C)C [Compound 55, (1R,3S,4S)-N-((S)-1-(((3R,4S,5S)-3-methoxy-1-((S)-2-((1R,2R)-1-methoxy-2-methyl-3-oxo-3-(((S)-1-phenyl-3-sulfamoylpropan-2-yl)amino)propyl)pyrrolidin-1-yl)-5-methyl-1-oxoheptan-4-yl)(methyl)amino)-3-methyl-1-oxobutan-2-yl)-2-methyl-2-azabicyclo[2.2.1]heptane-3-carboxamide] | 0.751 nM | 0.364 nM | 2.75 nM | 0.643 nM | 0.21 nM | 0.124 nM |
| CC[C@H](C)[C@@H]([C@@H](CC(=O)N1CCC[C@H]1[C@H](OC)[C@@H](C)C(=O)N[C@@H](Cc1ccccc1)c1nc(-c2ccccc2)c[nH]1)OC)N(C)C(=O)[C@@H](NC(=O)[C@H]1N[C@@H]2CC[C@H]1C2)C(C)C [Compound 57, (1R,3S,4S)-N-((S)-1-(((3R,4S,5S)-3-Methoxy-1-((S)-2-((1R,2R)-1-methoxy-2-methyl-3-oxo-3-(((S)-2-phenyl-1-(5-phenyl-1H-imidazol-2-yl)ethyl)amino)propyl)pyrrolidin-1-yl)-5-methyl-1-oxoheptan-4-yl)(methyl)amino)-3-methyl-1-oxobutan-2-yl)-2-azabicyclo[2.2.1]heptane-3-carboxamide] | 0.307 nM | 1.11 nM | 0.049 nM | 0.019 nM | 0.034 nM |  |
| CC[C@H](C)[C@@H]([C@@H](CC(=O)N1CCC[C@H]1[C@H](OC)[C@@H](C)C(=O)N[C@H](COC)Cc1ccccc1)OC)N(C)C(=O)[C@@H](NC(=O)[C@H]1N[C@@H]2CC[C@H]1C2)C(C)C [Compound 58, (1R,3S,4S)-N-((S)-1-(((3R,4S,5S)-3-Methoxy-1-((S)-2-((1R,2R)-1-methoxy-3-(((S)-1-methoxy-3-phenylpropan-2-yl)amino)-2-methyl-3-oxopropyl)pyrrolidin-1-yl)-5-methyl-1-oxoheptan-4-yl)(methyl)amino)-3-methyl-1-oxobutan-2-yl)-2-azabicyclo[2.2.1]heptane-3-carboxamide] | 2.15 nM | 4.08 nM | 0.304 nM | 0.31 nM | 0.307 nM |  |
| CC[C@H](C)[C@@H]([C@@H](CC(=O)N1CCC[C@H]1[C@H](OC)[C@@H](C)C(=O)N[C@@H](Cc1ccccc1)c1cc[nH]n1)OC)N(C)C(=O)[C@@H](NC(=O)[C@H]1N[C@@H]2CC[C@H]1C2)C(C)C [Compound 59, (1R,3S,4S)-N-((S)-1-(((3R,4S,5S)-3-Methoxy-1-((S)-2-((1R,2R)-1-methoxy-2-methyl-3-oxo-3-(((S)-2-phenyl-1-(1H-pyrazol-3-yl)ethyl)amino)propyl)pyrrolidin-1-yl)-5-methyl-1-oxoheptan-4-yl)(methyl)amino)-3-methyl-1-oxobutan-2-yl)-2-azabicyclo[2.2.1]heptane-3-carboxamide] | 37.5 nM | 19.5 nM | 3.55 nM | 4.78 nM | 3.12 nM |  |
| CC[C@H](C)[C@@H]([C@@H](CC(=O)N1CCC[C@H]1[C@H](OC)[C@@H](C)C(=O)N[C@@H](Cc1ccccc1)c1ncccn1)OC)N(C)C(=O)[C@@H](NC(=O)[C@H]1N[C@@H]2CC[C@H]1C2)C(C)C [Compound 60, (1R,3S,4S)-N-((S)-1-(((3R,4S,5S)-3-Methoxy-1-((S)-2-((1R,2R)-1-methoxy-2-methyl-3-oxo-3-(((S)-2-phenyl-1-(pyrimidin-2-yl)ethyl)amino)propyl)pyrrolidin-1-yl)-5-methyl-1-oxoheptan-4-yl)(methyl)amino)-3-methyl-1-oxobutan-2-yl)-2-azabicyclo[2.2.1]heptane-3-carboxamide] | 4.82 nM | 8.35 nM | 0.45 nM | 0.801 nM | 0.591 nM |  |
| CC[C@H](C)[C@@H]([C@@H](CC(=O)N1CCC[C@H]1[C@H](OC)[C@@H](C)C(=O)N[C@H](Cc1ccccc1)c1ncccn1)OC)N(C)C(=O)[C@@H](NC(=O)[C@H]1N[C@@H]2CC[C@H]1C2)C(C)C [Compound 61, (1R,3S,4S)-N-((S)-1-(((3R,4S,5S)-3-methoxy-1-((S)-2-((1R,2R)-1-methoxy-2-methyl-3-oxo-3-(((R)-2-phenyl-1-(pyrimidin-2-yl)ethyl)amino)propyl)pyrrolidin-1-yl)-5-methyl-1-oxoheptan-4-yl)(methyl)amino)-3-methyl-1-oxobutan-2-yl)-2-azabicyclo[2.2.1]heptane-3-carboxamide] | 66 nM | 60.6 nM | 5.43 nM | 13.5 nM | 6.1 nM |  |
| CC[C@H](C)[C@@H]([C@@H](CC(=O)N1CCC[C@H]1[C@H](OC)[C@@H](C)C(=O)N[C@H](COC)Cc1cccc(N)c1)OC)N(C)C(=O)[C@@H](NC(=O)[C@@H]1[C@H]2CC[C@H](C2)N1C)C(C)C [Compound 72, (1R,3S,4S)-N-((S)-1-(((3R,4S,5S)-1-((S)-2-((1R,2R)-3-(((S)-1-(3-Aminophenyl)-3-methoxypropan-2-yl)amino)-1-methoxy-2-methyl-3-oxopropyl)pyrrolidin-1-yl)-3-methoxy-5-methyl-1-oxoheptan-4-yl)(methyl)amino)-3-methyl-1-oxobutan-2-yl)-2-methyl-2-azabicyclo[2.2.1]heptane-3-carboxamide] | 0.224 nM | 0.287 nM | 0.189 nM |  | 0.085 nM | 0.079 nM |
| CC[C@H](C)[C@@H]([C@@H](CC(=O)N1CCC[C@H]1[C@H](OC)[C@@H](C)C(=O)N[C@H](C)[C@@H](O)c1ccccc1)OC)N(C)C(=O)[C@@H](NC(=O)[C@@H]1[C@H]2CC[C@H](C2)N1C)C(C)C [Compound 74, (1R,3S,4S)-N-((S)-1-(((3R,4S,5S)-1-((S)-2-((1R,2R)-3-(((1S,2R)-1-Hydroxy-1-phenylpropan-2-yl)amino)-1-methoxy-2-methyl-3-oxopropyl)pyrrolidin-1-yl)-3-methoxy-5-methyl-1-oxoheptan-4-yl)(methyl)amino)-3-methyl-1-oxobutan-2-yl)-2-methyl-2-azabicyclo[2.2.1]heptane-3-carboxamide] | 0.587 nM | 0.962 nM | 0.571 nM |  | 0.351 nM | 0.27 nM |
